Reference: PubChem BioAssay (NCI)
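Grown in 96-well plates, cells were treated for 48 hours with each compound at five concentrations. Insufficient inhibition: endpoint recorded as highest concentration tested. At the TGI there is no net growth.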

Columns and labels:
Assay in all cases: inhibition of tumour cell growth, NCI panel, 48 h
KM12 colon = tested on: KM12 colon
RPMI-8226 leukemia = tested on: RPMI-8226 leukemia
OVCAR-5 ovarian = tested on: OVCAR-5 ovarian
U251 CNS = tested on: U251 CNS
UACC-62 melanoma = tested on: UACC-62 melanoma
UO-31 renal = tested on: UO-31 renal
A498 renal = tested on: A498 renal
COLO 205 colon = tested on: COLO 205 colon
M14 melanoma = tested on: M14 melanoma
NCI/ADR-RES ovarian = tested on: NCI/ADR-RES ovarian

SMILES: C=CCOCn1cnc2c(=O)[nH]c(N)nc21
- TGI (KM12 colon): > 100 µM
- TGI (RPMI-8226 leukemia): > 100 µM
- TGI (OVCAR-5 ovarian): > 100 µM
- TGI (U251 CNS): > 100 µM
- TGI (UACC-62 melanoma): > 100 µM
- TGI (UO-31 renal): > 100 µM
- TGI (A498 renal): > 100 µM
- TGI (COLO 205 colon): > 100 µM
- TGI (M14 melanoma): > 100 µM
- TGI (NCI/ADR-RES ovarian): > 100 µM

SMILES: NC(CSCSCC(N)C(=O)O)C(=O)O (centres undefined)
- TGI (KM12 colon): > 104 µM
- TGI (RPMI-8226 leukemia): > 225 µM
- TGI (OVCAR-5 ovarian): > 225 µM
- TGI (U251 CNS): > 225 µM
- TGI (UACC-62 melanoma): > 225 µM
- TGI (UO-31 renal): > 225 µM
- TGI (A498 renal): > 225 µM
- TGI (COLO 205 colon): > 225 µM
- TGI (NCI/ADR-RES ovarian): > 104 µM

SMILES: COc1ccc(C=O)cc1OS(=O)(=O)C(F)(F)C(F)(F)C(F)(F)C(F)(F)F
- TGI (KM12 colon): > 74.4 µM
- TGI (RPMI-8226 leukemia): 54.3 µM
- TGI (OVCAR-5 ovarian): > 100 µM
- TGI (U251 CNS): 66.5 µM
- TGI (UACC-62 melanoma): 50.7 µM
- TGI (UO-31 renal): > 60.9 µM
- TGI (A498 renal): > 68.2 µM
- TGI (COLO 205 colon): 62.4 µM
- TGI (M14 melanoma): > 80.5 µM
- TGI (NCI/ADR-RES ovarian): 58.3 µM

SMILES: COC(=O)[C@H](Cc1ccccc1)NC(=O)N(CCNC(=O)OC(C)(C)C)c1ccccc1
- TGI (KM12 colon): > 100 µM
- TGI (RPMI-8226 leukemia): > 100 µM
- TGI (OVCAR-5 ovarian): > 100 µM
- TGI (U251 CNS): > 100 µM
- TGI (UACC-62 melanoma): > 100 µM
- TGI (UO-31 renal): > 100 µM
- TGI (A498 renal): > 100 µM
- TGI (COLO 205 colon): > 100 µM
- TGI (M14 melanoma): > 100 µM
- TGI (NCI/ADR-RES ovarian): > 100 µM

SMILES: O=C(NC(OCc1ccccc1)(C(F)(F)F)C(F)(F)F)OCc1ccccc1
- TGI (KM12 colon): 30.2 µM
- TGI (RPMI-8226 leukemia): 41.1 µM
- TGI (OVCAR-5 ovarian): 27.4 µM
- TGI (U251 CNS): 27.1 µM
- TGI (UACC-62 melanoma): 27 µM
- TGI (UO-31 renal): 23.3 µM
- TGI (A498 renal): 31.6 µM
- TGI (COLO 205 colon): 31.6 µM
- TGI (M14 melanoma): 33 µM
- TGI (NCI/ADR-RES ovarian): 26.3 µM

SMILES: CCOC(=O)c1cc([N+](=O)[O-])c(Sc2ncnc3nc[nH]c23)c([N+](=O)[O-])c1
- TGI (KM12 colon): 24.5 µM
- TGI (RPMI-8226 leukemia): 6.08 µM
- TGI (OVCAR-5 ovarian): 5.15 µM
- TGI (U251 CNS): 22.8 µM
- TGI (UACC-62 melanoma): 11.9 µM
- TGI (UO-31 renal): 7.08 µM
- TGI (A498 renal): 25.6 µM
- TGI (COLO 205 colon): 3.08 µM
- TGI (M14 melanoma): 15 µM
- TGI (NCI/ADR-RES ovarian): 14.3 µM

SMILES: OCC1OC(n2cnc3c(Cl)nc(Nc4ccc(Cl)c(Cl)c4)nc32)CC1O (centres undefined)
- TGI (KM12 colon): 17.7 µM
- TGI (RPMI-8226 leukemia): 29.4 µM
- TGI (OVCAR-5 ovarian): > 50 µM
- TGI (U251 CNS): 23.8 µM
- TGI (UACC-62 melanoma): 17.2 µM
- TGI (UO-31 renal): 31.4 µM
- TGI (A498 renal): 18.9 µM
- TGI (COLO 205 colon): 20.5 µM
- TGI (M14 melanoma): 32 µM
- TGI (NCI/ADR-RES ovarian): 25.3 µM

SMILES: CCOC(=O)CC1Nc2ccccc2C12CCc1c([nH]c3ccccc13)C2C(=O)OCC (centres undefined)
- TGI (KM12 colon): > 100 µM
- TGI (RPMI-8226 leukemia): 11.1 µM
- TGI (OVCAR-5 ovarian): > 100 µM
- TGI (U251 CNS): > 100 µM
- TGI (UACC-62 melanoma): > 100 µM
- TGI (UO-31 renal): > 100 µM
- TGI (A498 renal): > 100 µM
- TGI (COLO 205 colon): 22.4 µM
- TGI (M14 melanoma): > 100 µM
- TGI (NCI/ADR-RES ovarian): > 100 µM

SMILES: C/C(=N\O)c1cccc(Nc2c3ccccc3nc3occc23)c1
- TGI (KM12 colon): > 100 µM
- TGI (RPMI-8226 leukemia): > 100 µM
- TGI (OVCAR-5 ovarian): > 100 µM
- TGI (U251 CNS): > 100 µM
- TGI (UACC-62 melanoma): 49.1 µM
- TGI (UO-31 renal): > 100 µM
- TGI (A498 renal): > 100 µM
- TGI (COLO 205 colon): > 100 µM
- TGI (M14 melanoma): > 100 µM
- TGI (NCI/ADR-RES ovarian): > 100 µM

SMILES: NS(=O)(=O)c1ccc(NC(=O)c2ccc3nc4ccccc4c(Nc4ccc(S(N)(=O)=O)cc4)c3c2)cc1
- TGI (KM12 colon): > 100 µM
- TGI (RPMI-8226 leukemia): > 100 µM
- TGI (OVCAR-5 ovarian): > 100 µM
- TGI (U251 CNS): > 100 µM
- TGI (UACC-62 melanoma): > 100 µM
- TGI (UO-31 renal): > 100 µM
- TGI (A498 renal): > 100 µM
- TGI (COLO 205 colon): > 100 µM
- TGI (M14 melanoma): > 100 µM
- TGI (NCI/ADR-RES ovarian): > 100 µM

SMILES: O=C(/C=C/c1cccc(Br)c1)N1CCN(CCOC(c2ccccc2)c2ccccc2)CC1
- TGI (KM12 colon): > 100 µM
- TGI (RPMI-8226 leukemia): 36.2 µM
- TGI (OVCAR-5 ovarian): > 100 µM
- TGI (U251 CNS): > 100 µM
- TGI (UACC-62 melanoma): > 100 µM
- TGI (UO-31 renal): 65.8 µM
- TGI (A498 renal): > 100 µM
- TGI (COLO 205 colon): 57.4 µM
- TGI (M14 melanoma): > 100 µM
- TGI (NCI/ADR-RES ovarian): > 100 µM

SMILES: CCCCCCc1cc2cc(C(=O)Nc3cccc(F)c3)c(=N)oc2cc1O
- TGI (KM12 colon): 8.3 µM
- TGI (RPMI-8226 leukemia): 9.4 µM
- TGI (OVCAR-5 ovarian): 48.6 µM
- TGI (U251 CNS): 6.58 µM
- TGI (UACC-62 melanoma): 7.04 µM
- TGI (UO-31 renal): 12.4 µM
- TGI (A498 renal): 15 µM
- TGI (COLO 205 colon): 34.7 µM
- TGI (M14 melanoma): 11.3 µM
- TGI (NCI/ADR-RES ovarian): 7.54 µM

SMILES: CCOc1cc2c(cc1O)C(=O)C[C@@H]1[C@@H]2CC[C@]2(C)[C@@H](O)CC[C@@H]12
- TGI (KM12 colon): 29.6 µM
- TGI (RPMI-8226 leukemia): > 9.48 µM
- TGI (OVCAR-5 ovarian): > 100 µM
- TGI (U251 CNS): > 51.9 µM
- TGI (UACC-62 melanoma): > 100 µM
- TGI (UO-31 renal): > 100 µM
- TGI (A498 renal): > 29.1 µM
- TGI (COLO 205 colon): 47.4 µM
- TGI (M14 melanoma): > 38.9 µM
- TGI (NCI/ADR-RES ovarian): 8.27 µM

SMILES: COC(=O)c1c2c(cc3c1CC1(C3)Cc3cc4c(c(C(=O)OC)c3C1)CCC4)CCC2
- TGI (KM12 colon): > 100 µM
- TGI (RPMI-8226 leukemia): > 100 µM
- TGI (OVCAR-5 ovarian): > 100 µM
- TGI (U251 CNS): > 100 µM
- TGI (UACC-62 melanoma): > 100 µM
- TGI (UO-31 renal): 28.4 µM
- TGI (A498 renal): > 100 µM
- TGI (COLO 205 colon): > 100 µM
- TGI (M14 melanoma): > 100 µM
- TGI (NCI/ADR-RES ovarian): > 100 µM

SMILES: NC1NCCC(=O)N1CCc1c[nH]c2ccccc12 (centres undefined)
- TGI (KM12 colon): 29.8 µM
- TGI (RPMI-8226 leukemia): 60.3 µM
- TGI (OVCAR-5 ovarian): 69.3 µM
- TGI (U251 CNS): > 100 µM
- TGI (UACC-62 melanoma): 37.6 µM
- TGI (UO-31 renal): > 100 µM
- TGI (A498 renal): 27.9 µM
- TGI (COLO 205 colon): 32.5 µM
- TGI (M14 melanoma): 33.3 µM
- TGI (NCI/ADR-RES ovarian): 69.4 µM

SMILES: O[C@@]12Cc3c([nH]c4ccccc34)[C@@H]3Oc4c(-c5ccccc5)ccc5c4[C@@]31CCN(CC1CC1)[C@@H]2C5
- TGI (KM12 colon): 3.35 µM
- TGI (RPMI-8226 leukemia): > 100 µM
- TGI (OVCAR-5 ovarian): 15.1 µM
- TGI (U251 CNS): 3.09 µM
- TGI (UACC-62 melanoma): 3.32 µM
- TGI (UO-31 renal): 3.11 µM
- TGI (A498 renal): 2.79 µM
- TGI (COLO 205 colon): 3.28 µM
- TGI (M14 melanoma): 3.31 µM
- TGI (NCI/ADR-RES ovarian): 6.58 µM

SMILES: c1cc(CSc2ncnc3nc[nH]c23)ccn1
- TGI (KM12 colon): > 100 µM
- TGI (RPMI-8226 leukemia): > 100 µM
- TGI (OVCAR-5 ovarian): > 100 µM
- TGI (U251 CNS): > 100 µM
- TGI (UACC-62 melanoma): > 100 µM
- TGI (UO-31 renal): > 100 µM
- TGI (A498 renal): > 100 µM
- TGI (COLO 205 colon): > 100 µM
- TGI (M14 melanoma): > 100 µM
- TGI (NCI/ADR-RES ovarian): > 100 µM

SMILES: Cc1ccc(S(=O)(=O)Nn2c(S)c(C#N)c(-c3ccc(Cl)cc3)c(C#N)c2=O)cc1
- TGI (KM12 colon): 88.4 µM
- TGI (RPMI-8226 leukemia): 88.8 µM
- TGI (OVCAR-5 ovarian): > 100 µM
- TGI (U251 CNS): 58 µM
- TGI (UACC-62 melanoma): > 100 µM
- TGI (UO-31 renal): 57.5 µM
- TGI (A498 renal): > 100 µM
- TGI (COLO 205 colon): > 100 µM
- TGI (M14 melanoma): > 100 µM
- TGI (NCI/ADR-RES ovarian): 71.5 µM

SMILES: Cc1c(C#N)c2nc3ccccc3n2c(=O)/c1=C/Nc1ccc(Cl)cc1
- TGI (KM12 colon): > 100 µM
- TGI (RPMI-8226 leukemia): > 100 µM
- TGI (OVCAR-5 ovarian): > 100 µM
- TGI (U251 CNS): 24.6 µM
- TGI (UACC-62 melanoma): 47.4 µM
- TGI (UO-31 renal): 70.9 µM
- TGI (A498 renal): 72.5 µM
- TGI (COLO 205 colon): > 100 µM
- TGI (M14 melanoma): 40.9 µM
- TGI (NCI/ADR-RES ovarian): > 100 µM

SMILES: S=C(S)NCCN1CCNCC1
- TGI (KM12 colon): > 100 µM
- TGI (RPMI-8226 leukemia): 47.5 µM
- TGI (OVCAR-5 ovarian): > 100 µM
- TGI (U251 CNS): > 100 µM
- TGI (UACC-62 melanoma): > 100 µM
- TGI (UO-31 renal): > 100 µM
- TGI (A498 renal): > 100 µM
- TGI (COLO 205 colon): 43.7 µM
- TGI (M14 melanoma): > 100 µM
- TGI (NCI/ADR-RES ovarian): > 100 µM
